Earlier results as cited in patent publication US7687487B2, “Camptothecin-analog with a novel, “flipped” lactone-stable, E-ring and methods for making and using same” (BioNumerik Pharmaceuticals, Inc., priority 2007, dated 2010).
Entries after “also recorded” stand apart in the source; their conditions may differ. Like-named read-outs stand apart in the source and are kept apart here.

Columns and labels:
[1] = versus lactone form
[2] = for Toxicity: et al, * Dose Limiting Toxicity
tumors by Tumor Type = settings: et al
[3] = tested on: advanced malignant melanoma; settings: fifteen patients
[4] = 24 hours after administration, once daily for 5 days, 6.5-20 mg/m^2/day
gastrointestinal cancer = settings: after 2 months (8 or 9 weeks)
[5] = not given; remark: listed apart in the source

## CC[C@@](O)(C(=O)O)c1cc2n(c(=O)c1CO)Cc1cc3ccccc3nc1-2 [carboxylate form of CPT]
[1]
  reduction of anti-tumor activity: at least 10 fold

## CCc1c2c(nc3ccc(OC(=O)N4CCC(N5CCCCC5)CC4)cc13)-c1cc3c(c(=O)n1C2)COC(=O)[C@]3(O)CC [CPT-11, 7-ethyl-10-[4-(1-piperidino)-1-piperidino]carbonyloxy camptothecin]
[2]; Clavel, 90 min. QDx 3 Q21 Days, 37 Pts., 115 mg/m^2/d (33-115)
  Toxicity: neutropenia*; also recorded: diarrhea,; also recorded: vomiting,
[2]; Ohe, 120 hr CI Q3 wks, 36 Pts., 40 mg/m^2/d (5-40)
  Toxicity: diarrhea*; also recorded: vomiting,; also recorded: thrombocytopenia; also recorded: Anemia; also recorded: liver
[2]; Phase I clinical trials summarised in Table VII
  major reported dose-limiting toxicities: Neutropenia and diarrhea
Tumors by Tumor Type; Clavel, 37 Pts.
  Tumor Type: Breast, responses: (1 PR)
  Tumor Type: Mesothelioma, responses: (1 PR)
Tumors by Tumor Type; Culine, 59 Pts.
  Tumor Type: Esophagus, responses: (1 PR) cervix
  Tumor Type: Ovarian, responses: (1 PR)
  Tumor Type: cervix, responses: (1 PR) renal
  Tumor Type: renal, responses: (1 PR)
Tumors by Tumor Type; Negoro, 17 Pts.
  Tumor Type: NS CLC, responses: (2 PRs)
Tumors by Tumor Type; Ohe, 36 Pts.
  Tumor Type with responses: None
Tumors by Tumor Type; Rothenberg, 32 Pts.
  Tumor Type: Colon Ca, responses: (2 PRs)
Tumors by Tumor Type; Rowinsky, 32 Pts.
  Tumor Type: Cervix Ca, responses: (1 PR)
  Tumor Type: Colon Cancer, responses: (1 PR)

## CC[C@@]1(O)C(=O)OCc2c1cc1n(c2=O)Cc2cc3ccccc3nc2-1 [CPT sodium]
Doses of 20 to 30 mg/m^2
  bladder toxicity: dose limiting in three patients
Fifteen patients, 20-67 mg/m^2 weekly, intravenous push
  most prominent non-hematologic toxic effect: Cystitis
[3]; 90-360 mg/m^2 every 2 weeks
  50% or greater decrease in tumor diameter: None of the patients
  myelosuppression: 11 patients
[3]; no clinical benefit associated
  less pronounced transient tumor regression: three patients
[4]
  relation of plasma CPT levels to dose: little relation to the dose given
Gastrointestinal cancer
  patients with partial objective improvement: only two of their 61 patients
[5]; 5-Day Course, P < 0.05
  Cystitis (% of 27 Patients): 48 (P < 0.05) %
[5]; Single Dose method of administration
  Cystitis (% of 34 Patients): 24%
[5]; higher doses
  persistence of diarrhea: ≤ 4 weeks
[5]; in vivo
  onset of cystitis after treatment: 7 to 10 days
